# Activity calls are given as the source filed them.
# Tests used:
# [1] = target: FAD-linked sulfhydryl oxidase ALR (Homo sapiens, UniProt P55789); experiment: inhibitors of human ALR sulfhydryl oxidase, dose response, biochemical, H2O2 detection, luminescence, cherry-pick (AID 493248)
# [2] = tested on: MDCK; experiment: antiviral activity against H1N1 influenza, dose response, cell-based, strain KY136 (AID 540257); assay type: functional; conditions: Canis lupus familiaris
# [3] = target: T1, High affinity choline transporter 1 (Homo sapiens, UniProt Q9GZV3); experiment: CHT inhibitors, dose response, cell-based, 5-point CRC, membrane potential dye (AID 504840); assay type: functional
# T1 sequence (Q9GZV3 whole entry): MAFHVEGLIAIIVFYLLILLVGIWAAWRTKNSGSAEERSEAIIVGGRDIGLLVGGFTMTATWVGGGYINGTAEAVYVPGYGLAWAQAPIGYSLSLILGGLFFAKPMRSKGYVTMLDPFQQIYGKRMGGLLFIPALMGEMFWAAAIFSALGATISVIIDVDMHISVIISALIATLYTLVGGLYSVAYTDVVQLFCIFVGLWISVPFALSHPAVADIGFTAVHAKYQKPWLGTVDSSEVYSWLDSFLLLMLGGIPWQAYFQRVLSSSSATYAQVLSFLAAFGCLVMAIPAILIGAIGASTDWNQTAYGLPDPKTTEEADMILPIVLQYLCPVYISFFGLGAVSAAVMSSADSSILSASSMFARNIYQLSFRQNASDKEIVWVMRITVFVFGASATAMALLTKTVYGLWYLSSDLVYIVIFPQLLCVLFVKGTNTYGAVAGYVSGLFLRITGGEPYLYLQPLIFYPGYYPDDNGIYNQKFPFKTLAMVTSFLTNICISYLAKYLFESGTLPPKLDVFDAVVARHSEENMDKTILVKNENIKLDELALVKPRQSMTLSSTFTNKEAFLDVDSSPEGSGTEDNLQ
# [4] = tested on: Streptococcus sp. 'group A'; experiment: growth inhibition of control SK(-) GAS strain, dose response, counter-screen for streptokinase expression inhibitor project, luminescence, kanamycin, BacTiterGlo, confirmation (AID 1900); assay type: functional, organism-based
# [5] = target: T2, Intestinal-type alkaline phosphatase (Homo sapiens, UniProt P09923); experiment: human intestinal alkaline phosphatase activators, dose response, biochemical, luminescence, uHTS hits (AID 463120); assay type: functional
# [6] = tested on: Streptococcus; experiment: Group A Streptococcus viability loss, dose response, counter-screen for streptokinase expression inhibitor project, luminescence, BacTiterGlo (AID 1915); assay type: functional, organism-based;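 note: potency for reduction of bacterial viability or growth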
# [7] = target: T3, Alkaline phosphatase, tissue-nonspecific isozyme (Homo sapiens, UniProt P05186); experiment: TNAP enzyme activators, dose response, selectivity assay for human IAP activator project, biochemical, TNAP isozyme, human IAP uHTS hits (AID 488886); assay type: functional;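 note: potency of compounds raising TNAP activity as a selectivity check on IAP activators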
# T3 sequence (P05186 whole entry): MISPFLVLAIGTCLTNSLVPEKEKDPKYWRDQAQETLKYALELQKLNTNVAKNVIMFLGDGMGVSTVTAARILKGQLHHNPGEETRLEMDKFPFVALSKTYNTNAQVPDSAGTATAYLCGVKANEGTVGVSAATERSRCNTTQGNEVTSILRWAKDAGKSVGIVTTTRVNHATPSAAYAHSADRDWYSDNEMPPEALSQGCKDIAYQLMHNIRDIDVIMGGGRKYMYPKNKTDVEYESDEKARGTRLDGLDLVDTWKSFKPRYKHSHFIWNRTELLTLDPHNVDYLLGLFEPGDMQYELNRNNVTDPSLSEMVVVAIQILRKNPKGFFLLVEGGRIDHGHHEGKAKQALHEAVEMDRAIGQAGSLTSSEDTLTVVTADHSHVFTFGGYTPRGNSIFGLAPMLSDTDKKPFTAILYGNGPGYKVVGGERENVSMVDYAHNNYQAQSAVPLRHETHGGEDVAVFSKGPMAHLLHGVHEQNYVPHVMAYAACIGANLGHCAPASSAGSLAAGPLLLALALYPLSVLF
# [8] = target: T4, Streptokinase A (Streptococcus pyogenes serotype M1, UniProt P10520); experiment: S. pyogenes streptokinase expression inhibitors, potency, dose response, plasminogen activation absorbance, OD405 (AID 1914); assay type: functional, Streptococcus pyogenes M1 GAS;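 note: secreted streptokinase activity via plasminogen activation per viability signal from cell pellet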
# T4 sequence (P10520 whole entry): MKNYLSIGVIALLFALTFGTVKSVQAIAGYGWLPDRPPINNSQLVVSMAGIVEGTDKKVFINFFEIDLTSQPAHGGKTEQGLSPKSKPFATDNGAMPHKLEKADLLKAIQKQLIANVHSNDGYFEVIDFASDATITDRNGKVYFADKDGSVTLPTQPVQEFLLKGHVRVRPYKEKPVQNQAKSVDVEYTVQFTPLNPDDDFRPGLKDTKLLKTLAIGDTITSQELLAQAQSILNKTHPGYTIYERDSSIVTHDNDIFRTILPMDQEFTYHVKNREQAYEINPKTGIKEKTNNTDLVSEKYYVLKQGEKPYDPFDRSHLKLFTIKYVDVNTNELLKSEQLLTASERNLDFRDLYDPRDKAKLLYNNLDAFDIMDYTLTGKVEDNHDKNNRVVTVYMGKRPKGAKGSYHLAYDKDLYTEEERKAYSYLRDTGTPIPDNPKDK
# [9] = target: Intestinal-type alkaline phosphatase (Mus musculus, UniProt P24822); experiment: PubChem AID 488875; assay type: functional
# [10] = target: T2, Intestinal-type alkaline phosphatase; experiment: human IAP activators, dose response, biochemical, luminescent, uHTS hits, set 2 (AID 488817); assay type: functional;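 note: potency of activators that raise enzyme activity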
# [11] = target: UDP-galactopyranose mutase (Mycobacterium tuberculosis, UniProt P9WIQ1); experiment: Inhibitors of Mycobacterium tuberculosis UDP-galactopyranose mutase (UGM) enzyme Measured in Biochemical System Using Plate Reader - 2105-02_Inhibitor_Dose_CherryPick_Activity. [Related pubchem assays (depositor defined):AID504439]
# [12] = target: T5, Corticotropin-releasing factor receptor 2/Corticotropin-releasing factor-binding protein (Homo sapiens, UniProt P24387+Q13324); experiment: activators of CRF receptor 2 with binding protein – uHTS hits, confirmation (AID 602473); assay type: functional; conditions: read-out: EC50_Mean
# T5 sequence (Q13324 whole entry): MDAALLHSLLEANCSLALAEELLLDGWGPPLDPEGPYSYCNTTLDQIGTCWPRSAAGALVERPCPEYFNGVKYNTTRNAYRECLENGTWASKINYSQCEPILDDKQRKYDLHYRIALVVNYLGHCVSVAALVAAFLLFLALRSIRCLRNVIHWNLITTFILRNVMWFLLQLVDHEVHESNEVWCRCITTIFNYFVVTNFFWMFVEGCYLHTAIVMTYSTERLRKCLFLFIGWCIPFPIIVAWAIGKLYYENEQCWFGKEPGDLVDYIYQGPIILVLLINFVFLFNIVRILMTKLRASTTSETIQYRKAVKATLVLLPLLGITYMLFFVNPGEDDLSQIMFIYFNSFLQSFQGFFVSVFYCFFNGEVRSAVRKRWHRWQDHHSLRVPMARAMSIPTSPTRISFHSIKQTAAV
# T5 sequence (P24387 whole entry): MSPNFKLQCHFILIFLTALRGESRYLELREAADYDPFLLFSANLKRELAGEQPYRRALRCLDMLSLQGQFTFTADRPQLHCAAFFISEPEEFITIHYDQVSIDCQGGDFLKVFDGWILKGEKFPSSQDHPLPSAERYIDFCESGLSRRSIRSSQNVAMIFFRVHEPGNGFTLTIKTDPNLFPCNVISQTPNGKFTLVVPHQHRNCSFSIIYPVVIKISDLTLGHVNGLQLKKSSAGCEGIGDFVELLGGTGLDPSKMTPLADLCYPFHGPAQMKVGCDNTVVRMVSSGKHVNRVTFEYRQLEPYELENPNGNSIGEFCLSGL
# [13] = target: Keap1/Nrf2 (Homo sapiens, UniProt Q14145); experiment: Keap1-Nrf2 protein-protein interaction inhibitors, dose response, biochemical, fluorescence polarization, cherry-picked samples (AID 588683)
# [14] = tested on: Candida albicans; experiment: growth inhibition of resistant C. albicans, dose response, CaCi-8, fluconazole, Alamar Blue, dry powder (AID 488807); assay type: functional, organism-based
# [15] = target: Dual specificity protein phosphatase 3 (Homo sapiens, UniProt P51452); experiment: SAR VHR1 Fluorescent Assay for In Vitro dose response studies Set 2. [Related pubchem assays (depositor defined):AID1654, AID1661, AID1878]; assay type: functional
# [16] = target: Dual specificity protein phosphatase 6 (Rattus norvegicus, UniProt Q64346); assay type: functional;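 note: confirmatory in vitro dose-response testing of MKP-3 inhibition; recombinant His-tagged MKP-3 made in E. coli BL21 with OMFP substrate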
# [17] = HEp-2 cell cytotoxicity, dose response, cytotoxicity control for RSV inhibitor project, HTS (AID 2410); assay type: functional; conditions: human respiratory syncytial virus
# [18] = target: T6, Tyrosine-protein phosphatase non-receptor type 7 (Homo sapiens, UniProt P35236); experiment: redox-dependent HePTP inhibition, mechanism study, biochemical, fluorescence (AID 2068); assay type: functional
# T6 sequence (P35236 whole entry): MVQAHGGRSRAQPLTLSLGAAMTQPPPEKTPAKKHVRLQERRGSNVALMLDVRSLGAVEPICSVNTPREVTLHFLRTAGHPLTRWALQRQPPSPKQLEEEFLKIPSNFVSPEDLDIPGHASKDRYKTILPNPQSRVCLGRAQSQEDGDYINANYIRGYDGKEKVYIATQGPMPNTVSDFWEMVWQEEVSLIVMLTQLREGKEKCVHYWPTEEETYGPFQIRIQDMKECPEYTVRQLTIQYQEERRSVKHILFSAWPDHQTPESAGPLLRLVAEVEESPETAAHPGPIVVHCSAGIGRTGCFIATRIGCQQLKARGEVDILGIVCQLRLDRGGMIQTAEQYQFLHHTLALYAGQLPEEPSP
# [19] = growth induction of Burl-1 ts yeast mutant, dose response, counter-screen for SUMOylation pathway inhibitor project, whole organism, S. cerevisiae, luminescence (AID 463199); assay type: functional
# [20] = cytotoxicity in HMLE control line with eGFP shRNA, dose response, counter-screen for HMLE_sh_ECad selective toxicity project, cell-based, HMLE_sh_eGFP, luminescence (AID 463074); assay type: functional, Homo sapiens;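 note: HMLE human mammary epithelial cells expressing control shRNA against eGFP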
# [21] = Luminescence Cell-Based Dose Retest to Confirm Inhibitors of Cancer Stem Cells. [Related pubchem assays (depositor defined):AID2717, AID2721]; assay type: functional; conditions: Homo sapiens
# T2 sequence (P09923 whole entry): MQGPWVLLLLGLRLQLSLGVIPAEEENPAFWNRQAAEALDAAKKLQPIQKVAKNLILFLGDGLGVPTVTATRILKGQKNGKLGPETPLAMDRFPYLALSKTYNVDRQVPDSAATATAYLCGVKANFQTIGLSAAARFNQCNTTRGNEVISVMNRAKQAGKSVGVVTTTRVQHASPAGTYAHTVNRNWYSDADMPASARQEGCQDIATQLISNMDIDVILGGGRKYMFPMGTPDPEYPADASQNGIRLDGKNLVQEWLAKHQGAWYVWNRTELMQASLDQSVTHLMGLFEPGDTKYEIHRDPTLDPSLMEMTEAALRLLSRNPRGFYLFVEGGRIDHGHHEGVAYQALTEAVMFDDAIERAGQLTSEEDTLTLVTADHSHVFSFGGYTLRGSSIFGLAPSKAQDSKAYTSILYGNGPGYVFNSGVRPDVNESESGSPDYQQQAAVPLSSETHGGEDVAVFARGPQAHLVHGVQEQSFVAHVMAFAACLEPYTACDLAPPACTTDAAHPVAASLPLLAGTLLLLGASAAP
# Intestinal-type alkaline phosphatase (Mus musculus, UniProt P24822), sequence (P24822 whole entry): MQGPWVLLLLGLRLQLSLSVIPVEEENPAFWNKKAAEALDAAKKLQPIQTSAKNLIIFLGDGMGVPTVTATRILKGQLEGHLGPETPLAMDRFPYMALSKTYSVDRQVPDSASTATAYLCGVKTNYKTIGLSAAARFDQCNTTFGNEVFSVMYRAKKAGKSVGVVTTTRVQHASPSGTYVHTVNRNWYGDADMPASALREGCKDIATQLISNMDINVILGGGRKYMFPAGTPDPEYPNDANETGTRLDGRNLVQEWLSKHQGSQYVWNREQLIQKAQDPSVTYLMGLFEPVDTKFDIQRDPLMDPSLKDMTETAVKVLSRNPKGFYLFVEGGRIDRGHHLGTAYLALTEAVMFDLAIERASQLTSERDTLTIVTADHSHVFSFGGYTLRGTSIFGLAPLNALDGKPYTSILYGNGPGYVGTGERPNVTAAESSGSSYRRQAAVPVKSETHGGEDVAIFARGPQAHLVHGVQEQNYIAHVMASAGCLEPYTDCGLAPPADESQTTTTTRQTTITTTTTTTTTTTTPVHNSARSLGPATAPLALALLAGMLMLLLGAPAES
# FAD-linked sulfhydryl oxidase ALR, sequence (P55789 whole entry): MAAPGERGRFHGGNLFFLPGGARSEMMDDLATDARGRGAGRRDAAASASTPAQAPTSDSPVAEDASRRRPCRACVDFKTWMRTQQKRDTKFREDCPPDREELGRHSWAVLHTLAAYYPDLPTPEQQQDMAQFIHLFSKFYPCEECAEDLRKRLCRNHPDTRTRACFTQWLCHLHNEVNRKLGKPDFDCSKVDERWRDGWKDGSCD
# Dual specificity protein phosphatase 6, sequence (Q64346 whole entry): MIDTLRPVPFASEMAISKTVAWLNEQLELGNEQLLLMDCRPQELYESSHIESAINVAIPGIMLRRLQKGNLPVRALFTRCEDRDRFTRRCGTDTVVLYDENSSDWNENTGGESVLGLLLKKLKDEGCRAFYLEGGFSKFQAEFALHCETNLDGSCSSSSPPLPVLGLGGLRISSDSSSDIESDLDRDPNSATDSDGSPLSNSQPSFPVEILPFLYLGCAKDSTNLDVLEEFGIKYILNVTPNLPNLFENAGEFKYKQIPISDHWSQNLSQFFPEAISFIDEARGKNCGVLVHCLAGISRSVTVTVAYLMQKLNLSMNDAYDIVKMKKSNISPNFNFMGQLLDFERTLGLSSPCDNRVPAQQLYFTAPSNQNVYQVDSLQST
# Keap1/Nrf2, sequence (Q16236 whole entry): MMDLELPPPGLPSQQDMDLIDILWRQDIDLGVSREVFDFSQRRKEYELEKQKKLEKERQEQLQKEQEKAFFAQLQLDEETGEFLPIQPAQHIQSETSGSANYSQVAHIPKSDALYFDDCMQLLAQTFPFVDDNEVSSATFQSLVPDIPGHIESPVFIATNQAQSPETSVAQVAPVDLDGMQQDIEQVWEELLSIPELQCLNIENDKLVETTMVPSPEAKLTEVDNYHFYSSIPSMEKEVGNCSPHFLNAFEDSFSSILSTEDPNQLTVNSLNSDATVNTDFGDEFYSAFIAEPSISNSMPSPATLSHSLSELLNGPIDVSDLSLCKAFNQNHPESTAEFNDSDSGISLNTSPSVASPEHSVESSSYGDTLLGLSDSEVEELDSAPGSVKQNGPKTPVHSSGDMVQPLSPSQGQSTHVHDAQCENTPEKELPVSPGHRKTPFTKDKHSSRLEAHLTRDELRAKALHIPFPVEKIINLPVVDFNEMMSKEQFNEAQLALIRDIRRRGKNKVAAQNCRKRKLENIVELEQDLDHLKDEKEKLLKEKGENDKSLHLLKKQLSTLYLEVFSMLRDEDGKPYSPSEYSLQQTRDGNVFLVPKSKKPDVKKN
# Keap1/Nrf2, sequence (Q14145 whole entry): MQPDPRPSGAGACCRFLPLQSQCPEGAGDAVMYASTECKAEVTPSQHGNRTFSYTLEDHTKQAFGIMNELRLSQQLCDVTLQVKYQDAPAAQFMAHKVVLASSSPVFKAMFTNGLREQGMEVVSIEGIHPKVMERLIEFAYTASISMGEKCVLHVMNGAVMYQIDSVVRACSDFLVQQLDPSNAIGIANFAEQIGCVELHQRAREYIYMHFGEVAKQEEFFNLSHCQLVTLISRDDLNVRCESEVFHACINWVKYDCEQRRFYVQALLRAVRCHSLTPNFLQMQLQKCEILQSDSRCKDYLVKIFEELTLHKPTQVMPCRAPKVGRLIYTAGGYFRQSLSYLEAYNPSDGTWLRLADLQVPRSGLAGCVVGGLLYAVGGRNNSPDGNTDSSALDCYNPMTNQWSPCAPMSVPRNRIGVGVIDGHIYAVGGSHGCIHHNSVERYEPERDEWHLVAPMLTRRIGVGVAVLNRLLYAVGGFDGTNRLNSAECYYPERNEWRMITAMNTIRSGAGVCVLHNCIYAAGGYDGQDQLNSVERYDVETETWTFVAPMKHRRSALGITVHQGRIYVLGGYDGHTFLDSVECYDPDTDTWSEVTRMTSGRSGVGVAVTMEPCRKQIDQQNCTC
# UDP-galactopyranose mutase, sequence (P9WIQ1 whole entry): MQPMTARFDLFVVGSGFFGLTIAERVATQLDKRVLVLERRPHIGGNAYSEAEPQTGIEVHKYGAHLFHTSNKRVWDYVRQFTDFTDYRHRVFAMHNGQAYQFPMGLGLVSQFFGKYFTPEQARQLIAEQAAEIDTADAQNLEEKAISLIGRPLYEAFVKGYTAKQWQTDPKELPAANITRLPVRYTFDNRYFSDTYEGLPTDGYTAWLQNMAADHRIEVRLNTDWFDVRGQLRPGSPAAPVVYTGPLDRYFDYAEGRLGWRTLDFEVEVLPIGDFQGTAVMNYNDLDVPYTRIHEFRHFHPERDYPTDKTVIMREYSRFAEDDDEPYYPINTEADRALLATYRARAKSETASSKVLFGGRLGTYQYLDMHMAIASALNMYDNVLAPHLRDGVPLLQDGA
# Dual specificity protein phosphatase 3, sequence (P51452 whole entry): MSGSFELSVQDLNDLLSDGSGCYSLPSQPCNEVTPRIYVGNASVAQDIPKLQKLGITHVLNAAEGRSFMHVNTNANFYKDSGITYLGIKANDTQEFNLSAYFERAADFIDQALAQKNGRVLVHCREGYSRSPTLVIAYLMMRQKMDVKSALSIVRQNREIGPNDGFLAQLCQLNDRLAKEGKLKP
structure (smiles),measurement,setting,value
Cc1ccc(N2C(=O)C(CC(=O)Nc3cccc(F)c3)N(C3CC3)C2=O)cc1 (centres undefined),AC50,[1],< 0.014 µM (active)
same,IC50,[2],52.3 µM (active)
Cc1cccc(CC(Cc2nc3ccccc3[nH]2)c2nc3ccccc3[nH]2)c1 (centres undefined),IC50,[3],12.6 µM (active)
same,EC50,[4],9.33 µM (active)
same,EC50,[5],29.8 µM (active)
same,EC50,[6],26.7 µM (active)
same,EC50,[7],62.1 µM (active)
same,EC50,[8],> 150 µM (not active)
same,EC50,[9],28.9 µM (active)
same,EC50,[10],47.7 µM (active)
CN1/C(=C\C=C(C#N)C#N)C(C)(C)c2ccccc21,AC50,[11],114 µM (active)
same,EC50,[12],10.8 µM (active)
same,AC50,[13],28.7 µM (active)
O=C(Cn1c2ccccc2c2nc3n(c(=O)c21)CCS3)N1CCCC1,AC50,[14],2.91 µM (active)
NS(=O)(=O)c1cc(C(=O)Nc2ccc3c(c2)CCC3)ccc1Cl,IC50,[15],> 100 µM (inactive)
same,IC50,[16],> 100 µM (inactive)
same,CC50,[17],39 µM (active)
same,IC50,[18],> 100 µM (inactive)
CC(C)CCn1c(=O)c2ccccc2c2ccccc2c1=O,AC50,[19],58.1 µM (active)
Cc1ccc(N(C)S(=O)(=O)c2cccc(C(=O)Nc3nc4ccccc4[nH]3)c2)cc1,AC50,[20],32.2 µM (active)
same,EC50,[4],1.71 µM (active)
same,EC50,[6],17.4 µM (active)
same,AC50,[21],4.1 µM (active)
same,EC50,[8],> 150 µM (not active)

# — ChEMBL document CHEMBL1201862, “PubChem BioAssay data set” (2004)
